{
  "source": "patent US20150175599A1",
  "about": "“FAAH Inhibitors” (Ironwood Pharmaceuticals, Inc., priority 2010, published 2015)",
  "key": {"human FAAH-1": {"target": "T1, human FAAH-1 (Homo sapiens, UniProt O00519)", "T1 sequence (O00519 1-579)": "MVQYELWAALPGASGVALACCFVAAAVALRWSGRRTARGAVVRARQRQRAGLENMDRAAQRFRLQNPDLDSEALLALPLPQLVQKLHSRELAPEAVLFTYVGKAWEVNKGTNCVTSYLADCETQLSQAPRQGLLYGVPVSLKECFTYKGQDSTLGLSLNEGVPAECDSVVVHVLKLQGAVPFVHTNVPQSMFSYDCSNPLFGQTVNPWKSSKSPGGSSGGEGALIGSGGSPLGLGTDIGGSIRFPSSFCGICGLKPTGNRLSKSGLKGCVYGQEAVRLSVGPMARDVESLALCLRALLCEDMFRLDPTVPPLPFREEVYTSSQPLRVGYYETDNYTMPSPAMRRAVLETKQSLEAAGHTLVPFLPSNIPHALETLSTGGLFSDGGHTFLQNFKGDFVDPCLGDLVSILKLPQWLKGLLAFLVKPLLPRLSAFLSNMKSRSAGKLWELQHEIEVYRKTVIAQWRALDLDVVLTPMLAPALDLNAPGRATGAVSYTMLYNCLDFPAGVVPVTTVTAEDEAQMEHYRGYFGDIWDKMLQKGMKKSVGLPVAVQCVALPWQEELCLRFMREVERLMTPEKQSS", "assay": "Whole cell anandamide hydrolysis assay (HeLa clone 5c5 transfected with human FAAH-1)", "assay_type": "cell-based", "settings": "HeLa clone 5c5 expressing human FAAH-1; read-out: human FAAH whole cell IC50", "in_short": "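Stable HeLa clone 5c5 expressing human FAAH-1, pre-incubated with compound 10 min at 37° C in DMEM/F12 with 15 mM HEPES pH 7.4 and 0.1% fatty-acid-free BSA. [3H]-anandamide (5 μM stock) added for 15 min; [3H]-ethanolamine separated on charcoal and counted. IC50 from curves constrained to 100% and 0%.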"}, "[1]": {"assay": "Pharmacokinetic study, plasma level 2 hours after oral dosing in rats", "assay_type": "in vivo", "in_short": "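Rats dosed by oral gavage in 1% DMA/99% Vitamin E TPGS; EDTA plasma taken by retro-orbital bleed 2 h post-dose. Acetonitrile precipitation with internal standard, LC/MS/MS quantitation against plasma standards 0.1–3000 ng/mL.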"}},
  "data": [
    {"compound": "COc1cc(NC(=O)C(=O)c2c(C)n(Cc3ccc(Cl)cc3)c3cccnc23)ccn1", "note": "[Compound 3, 2-(1-(4-chlorobenzyl)-2-methyl-1H-pyrrolo[3,2-b]pyridin-3-yl)-N-(2-methoxypyridin-4-yl)-2-oxoacetamide]", "values": [
      {"measurement": "IC50", "setting": "human FAAH-1", "result": "< 100", "unit": "nM"}
    ]},
    {"compound": "COc1cc(NC(=O)C(=O)c2c(C)n(Cc3ccc(Cl)cc3)c3ccc(C(=O)O)cc23)ccn1", "note": "[Compound 4, 1-(4-chlorobenzyl)-3-(2-(2-methoxypyridin-4-ylamino)-2-oxoacetyl)-2-methyl-1H-indole-5-carboxylic acid]", "values": [
      {"measurement": "IC50", "setting": "human FAAH-1", "result": "1000 to 10000", "unit": "nM"}
    ]},
    {"compound": "COc1ccc2c(c1)c(C(=O)C(=O)Nc1ccnc(OC)c1)c(C)n2Cc1cccnc1", "note": "[Compound 78, 2-(5-methoxy-2-methyl-1-(pyridin-3-ylmethyl)-1H-indol-3-yl)-N-(2-methoxypyridin-4-yl)-2-oxoacetamide]", "values": [
      {"measurement": "IC50", "setting": "human FAAH-1", "result": "< 100", "unit": "nM"}
    ]},
    {"compound": "COc1ccc2c(c1)c(C(=O)C(=O)Nc1ccnc(OC)c1)c(C)n2Cc1ccc(Cl)cn1", "note": "[Compound 79, 2-(1-((5-chloropyridin-2-yl)methyl)-5-methoxy-2-methyl-1H-indol-3-yl)-N-(2-methoxypyridin-4-yl)-2-oxoacetamide]", "values": [
      {"measurement": "IC50", "setting": "human FAAH-1", "result": "< 100", "unit": "nM"},
      {"measurement": "2 hr plasma level-ng/mL (rat, 10 mg/kg PO, 2 hr)", "setting": "[1]", "result": "D (D = greater than 1000 nM)"}
    ]},
    {"compound": "COc1cc(NC(=O)C(=O)c2c(C)n(Cc3ccc(Cl)cc3)c3cc(OC)c(Cl)cc23)ccn1", "note": "[Compound 80, 2-(5-chloro-1-(4-chlorobenzyl)-6-methoxy-2-methyl-1H-indol-3-yl)-N-(2-methoxypyridin-4-yl)-2-oxoacetamide]", "values": [
      {"measurement": "IC50", "setting": "human FAAH-1", "result": "< 100", "unit": "nM"}
    ]},
    {"compound": "COc1ccc2c(c1)c(C(=O)C(=O)Nc1ccnc(OC)c1)c(C)n2Cc1ncc(F)cc1F", "note": "[Compound 81, 2-(1-((3,5-difluoropyridin-2-yl)methyl)-5-methoxy-2-methyl-1H-indol-3-yl)-N-(2-methoxypyridin-4-yl)-2-oxoacetamide]", "values": [
      {"measurement": "IC50", "setting": "human FAAH-1", "result": "< 100", "unit": "nM"},
      {"measurement": "2 hr plasma level-ng/mL (rat, 10 mg/kg PO, 2 hr)", "setting": "[1]", "result": "D (D = greater than 1000 nM)"}
    ]},
    {"compound": "COc1ccc2c(c1)c(C(=O)C(=O)Nc1ccnc(OC)c1)c(C)n2Cc1ncc(Cl)cc1Cl", "note": "[Compound 82, 2-(1-((3,5-dichloropyridin-2-yl)methyl)-5-methoxy-2-methyl-1H-indol-3-yl)-N-(2-methoxypyridin-4-yl)-2-oxoacetamide]", "values": [
      {"measurement": "IC50", "setting": "human FAAH-1", "result": "< 100", "unit": "nM"},
      {"measurement": "2 hr plasma level-ng/mL (rat, 10 mg/kg PO, 2 hr)", "setting": "[1]", "result": "D (D = greater than 1000 nM)"}
    ]},
    {"compound": "COc1ccc2c(c1)c(C(=O)C(=O)Nc1ccnc(OC)c1)c(C)n2Cc1ncccn1", "note": "[Compound 83, 2-(5-methoxy-2-methyl-1-(pyrimidin-2-ylmethyl)-1H-indol-3-yl)-N-(2-methoxypyridin-4-yl)-2-oxoacetamide]", "values": [
      {"measurement": "IC50", "setting": "human FAAH-1", "result": "100 to 1000", "unit": "nM"}
    ]},
    {"compound": "COc1ccc2c(c1)c(C(=O)C(=O)Nc1ccnc(OC)c1)c(C)n2Cc1ccc(C)cn1", "note": "[Compound 84, 2-(5-methoxy-2-methyl-1-((5-methylpyridin-2-yl)methyl)-1H-indol-3-yl)-N-(2-methoxypyridin-4-yl)-2-oxoacetamide]", "values": [
      {"measurement": "IC50", "setting": "human FAAH-1", "result": "< 100", "unit": "nM"},
      {"measurement": "2 hr plasma level-ng/mL (rat, 10 mg/kg PO, 2 hr)", "setting": "[1]", "result": "D (D = greater than 1000 nM)"}
    ]},
    {"compound": "COc1cc(NC(=O)C(=O)c2c(C)n(Cc3ccc(F)cn3)c3ccc(C)cc23)ccn1", "note": "[Compound 85, 2-(1-((5-fluoropyridin-2-yl)methyl)-2,5-dimethyl-1H-indol-3-yl)-N-(2-methoxypyridin-4-yl)-2-oxoacetamide]", "values": [
      {"measurement": "IC50", "setting": "human FAAH-1", "result": "< 100", "unit": "nM"},
      {"measurement": "2 hr plasma level-ng/mL (rat, 10 mg/kg PO, 2 hr)", "setting": "[1]", "result": "D (D = greater than 1000 nM)"}
    ]},
    {"compound": "COc1ccc2c(c1)c(C(=O)C(=O)Nc1ccnc(OC)c1)c(C)n2Cc1ccc(Cl)nn1", "note": "[Compound 86, 2-(1-((6-chloropyridazin-3-yl)methyl)-5-methoxy-2-methyl-1H-indol-3-yl)-N-(2-methoxypyridin-4-yl)-2-oxoacetamide]", "values": [
      {"measurement": "IC50", "setting": "human FAAH-1", "result": "< 100", "unit": "nM"},
      {"measurement": "2 hr plasma level-ng/mL (rat, 10 mg/kg PO, 2 hr)", "setting": "[1]", "result": "D (D = greater than 1000 nM)"}
    ]},
    {"compound": "COc1ccc2c(c1)c(C(=O)C(=O)Nc1ccnc(OC)c1)c(C)n2Cc1ncc(Cl)cc1F", "note": "[Compound 87, 2-(1-((5-chloro-3-fluoropyridin-2-yl)methyl)-5-methoxy-2-methyl-1H-indol-3-yl)-N-(2-methoxypyridin-4-yl)-2-oxoacetamide]", "values": [
      {"measurement": "IC50", "setting": "human FAAH-1", "result": "< 100", "unit": "nM"},
      {"measurement": "2 hr plasma level-ng/mL (rat, 10 mg/kg PO, 2 hr)", "setting": "[1]", "result": "D (D = greater than 1000 nM)"}
    ]},
    {"compound": "COc1cc(NC(=O)C(=O)c2c(C)n(Cc3ccc(Cl)cc3)c3cc(F)c(C)cc23)ccn1", "note": "[Compound 89, 2-(1-(4-chlorobenzyl)-6-fluoro-2,5-dimethyl-1H-indol-3-yl)-N-(2-methoxypyridin-4-yl)-2-oxoacetamide]", "values": [
      {"measurement": "IC50", "setting": "human FAAH-1", "result": "< 100", "unit": "nM"},
      {"measurement": "2 hr plasma level-ng/mL (rat, 10 mg/kg PO, 2 hr)", "setting": "[1]", "result": "C (C = between 100 nM and 1000 nM)"}
    ]},
    {"compound": "COc1cc(NC(=O)C(=O)c2c(C)n(Cc3ccc(Cl)cn3)c3cc(F)c(C)cc23)ccn1", "note": "[Compound 90, 2-(1-((5-chloropyridin-2-yl)methyl)-6-fluoro-2,5-dimethyl-1H-indol-3-yl)-N-(2-methoxypyridin-4-yl)-2-oxoacetamide]", "values": [
      {"measurement": "IC50", "setting": "human FAAH-1", "result": "< 100", "unit": "nM"},
      {"measurement": "2 hr plasma level-ng/mL (rat, 10 mg/kg PO, 2 hr)", "setting": "[1]", "result": "D (D = greater than 1000 nM)"}
    ]},
    {"compound": "COc1cc(NC(=O)C(=O)c2c(C)n(Cc3ccc(Cl)cc3F)c3cc(F)c(OC)cc23)ccn1", "note": "[Compound 91, 2-(1-(4-chloro-2-fluorobenzyl)-6-fluoro-5-methoxy-2-methyl-1H-indol-3-yl)-N-(2-methoxypyridin-4-yl)-2-oxoacetamide]", "values": [
      {"measurement": "IC50", "setting": "human FAAH-1", "result": "< 100", "unit": "nM"}
    ]},
    {"compound": "COc1cc(NC(=O)C(=O)c2c(C)n(Cc3ccc(Cl)cc3Cl)c3cc(F)c(OC)cc23)ccn1", "note": "[Compound 92, 2-(1-(2,4-dichlorobenzyl)-6-fluoro-5-methoxy-2-methyl-1H-indol-3-yl)-N-(2-methoxypyridin-4-yl)-2-oxoacetamide]", "values": [
      {"measurement": "IC50", "setting": "human FAAH-1", "result": "< 100", "unit": "nM"}
    ]},
    {"compound": "COc1cc(NC(=O)C(=O)c2c(C)n(Cc3ccc(Cl)cc3)c3cc(Cl)c(C)cc23)ccn1", "note": "[Compound 93, 2-(6-chloro-1-(4-chlorobenzyl)-2,5-dimethyl-1H-indol-3-yl)-N-(2-methoxypyridin-4-yl)-2-oxoacetamide]", "values": [
      {"measurement": "IC50", "setting": "human FAAH-1", "result": "< 100", "unit": "nM"},
      {"measurement": "2 hr plasma level-ng/mL (rat, 10 mg/kg PO, 2 hr)", "setting": "[1]", "result": "C (C = between 100 nM and 1000 nM)"}
    ]},
    {"compound": "COc1cc(NC(=O)C(=O)c2c(C)n(Cc3ccc(Cl)cn3)c3cc(Cl)c(C)cc23)ccn1", "note": "[Compound 94, 2-(6-chloro-1-((5-chloropyridin-2-yl)methyl)-2,5-dimethyl-1H-indol-3-yl)-N-(2-methoxypyridin-4-yl)-2-oxoacetamide]", "values": [
      {"measurement": "IC50", "setting": "human FAAH-1", "result": "< 100", "unit": "nM"},
      {"measurement": "2 hr plasma level-ng/mL (rat, 10 mg/kg PO, 2 hr)", "setting": "[1]", "result": "D (D = greater than 1000 nM)"}
    ]}
  ]
}
